Test results: patent publication US10167262B2, “Herbicidal substituted 3-arylpyrazoles” (FMC CORPORATION, priority 2014, dated 2019)

Legend:
Format in all cases: in vivo
[1] = system: velvetleaf (Abutilon theophrasti); assay: Test A pre-/postemergence greenhouse herbicide test, visual injury rating 0-100
From the text: (§1) Seeds of plant species selected from barnyardgrass (Echinochloa crus-galli), large (Lg) crabgrass (Digitaria sanguinalis), giant foxtail (Setaria faberii), morningglory (Ipomoea spp.), pigweed (Amaranthus retroflexus), velvetleaf (Abutilon theophrasti), wheat (Triticum aestivum), and corn (Zea mays) were planted into a blend of loam soil and sand and treated preemergence with a directed soil spray using test chemicals formulated in a non-phytotoxic solvent mixture which included a surfactant. At the same time these species were also treated with postemergence applications of test chemicals formulated in the same manner. Plants ranged in height from 2 to 10 cm and were in the one- to two-leaf stage for the postemergence treatment. Treated plants and untreated controls were maintained in a greenhouse for approximately 10 days, after which time all treated plants were compared to untreated controls and visually evaluated for injury. Plant response ratings, summarized in Table A, are based on a 0 to 100 scale where 0 is no effect and 100 is complete control. A dash (-) response means no test result.

[2] = system: giant foxtail (Setaria faberii); assay: as above
From the text: as §1

[3] = system: wheat (Triticum aestivum); assay: as above
From the text: as §1

[4] = system: pigweed (Amaranthus retroflexus); assay: as above
From the text: as §1

[5] = system: barnyardgrass (Echinochloa crus-galli); assay: as above
From the text: as §1

[6] = system: large (Lg) crabgrass (Digitaria sanguinalis); assay: as above
From the text: as §1

corn (Zea mays) = assay: as above
From the text: as §1

[7] = system: sedge, umbrella (small-flower umbrella sedge, Cyperus difformis); assay: Test B flooded paddy test, plant response rating 0-100; details: Flood, 250 g ai/ha; scale 0 to 100 (0 no effect, 100 complete control); 13 to 15 days
From the text: (§2) At time of treatment, test pots were flooded to 3 cm above the soil surface, treated by application of test compounds directly to the paddy water, and then maintained at that water depth for the duration of the test. Treated plants and controls were maintained in a greenhouse for 13 to 15 days, after which time all species were compared to controls and visually evaluated. […] A dash (-) response means no test result.

rice (Oryza sativa) = assay: as above; details: Flood, 250 g ai/ha; scale 0 to 100 (0 no effect, 100 complete control); 13 to 15 days
From the text: as §2

[8] = system: ducksalad (Heteranthera limosa); assay: as above; details: Flood, 250 g ai/ha; scale 0 to 100 (0 no effect, 100 complete control); 13 to 15 days
From the text: as §2

[9] = system: barnyardgrass (Echinochloa crus-galli); assay: as above; details: Flood, 250 g ai/ha; scale 0 to 100 (0 no effect, 100 complete control); 13 to 15 days
From the text: as §2

[10] = system: morningglory (Ipomoea spp.); assay: Test A pre-/postemergence greenhouse herbicide test, visual injury rating 0-100
From the text: as §1

CCn1cc(C(=O)c2ccccc2)c(-c2cc(F)cc(Cl)c2)n1 [Compound 46]
Plant response rating (0 to 100 scale), Velvetleaf ([1]; Postemergence, 1000 g ai/ha): 90
Plant response rating (0 to 100 scale), Velvetleaf ([1]; Preemergence, 1000 g ai/ha): 90
Plant response rating (0 to 100 scale), Foxtail, Giant ([2]; Postemergence, 1000 g ai/ha): 0
Plant response rating (0 to 100 scale), Foxtail, Giant ([2]; Preemergence, 1000 g ai/ha): 0
Plant response rating (0 to 100 scale), Wheat ([3]; Postemergence, 1000 g ai/ha): 0
Plant response rating (0 to 100 scale), Wheat ([3]; Preemergence, 1000 g ai/ha): 0
Plant response rating (0 to 100 scale), Pigweed ([4]; Postemergence, 1000 g ai/ha): 90
Plant response rating (0 to 100 scale), Pigweed ([4]; Preemergence, 1000 g ai/ha): 100
Plant response rating (0 to 100 scale), Barnyardgrass ([5]; Postemergence, 1000 g ai/ha): 0
Plant response rating (0 to 100 scale), Barnyardgrass ([5]; Preemergence, 1000 g ai/ha): 0
Plant response rating (0 to 100 scale), Crabgrass, Large ([6]; Postemergence, 1000 g ai/ha): 0
Plant response rating (0 to 100 scale), Crabgrass, Large ([6]; Preemergence, 1000 g ai/ha): 0
Plant response rating (0 to 100 scale), Corn (corn (Zea mays); Postemergence, 1000 g ai/ha): 0
Plant response rating (0 to 100 scale), Corn (corn (Zea mays); Preemergence, 1000 g ai/ha): 0
Plant response rating, Sedge, Umbrella [7]: 0
Plant response rating, Rice (rice (Oryza sativa)): 0
Plant response rating, Ducksalad [8]: 0
Plant response rating, Barnyardgrass [9]: 0

Cn1cc(C(=O)c2ccccc2)c(-c2cc(F)cc(Cl)c2)n1 [Compound 47]
Plant response rating (0 to 100 scale), Velvetleaf ([1]; Postemergence, 1000 g ai/ha): 90
Plant response rating (0 to 100 scale), Velvetleaf ([1]; Preemergence, 1000 g ai/ha): 90
Plant response rating (0 to 100 scale), Foxtail, Giant ([2]; Postemergence, 1000 g ai/ha): 0
Plant response rating (0 to 100 scale), Foxtail, Giant ([2]; Preemergence, 1000 g ai/ha): 0
Plant response rating (0 to 100 scale), Wheat ([3]; Postemergence, 1000 g ai/ha): 0
Plant response rating (0 to 100 scale), Wheat ([3]; Preemergence, 1000 g ai/ha): 0
Plant response rating (0 to 100 scale), Pigweed ([4]; Postemergence, 1000 g ai/ha): 90
Plant response rating (0 to 100 scale), Pigweed ([4]; Preemergence, 1000 g ai/ha): 80
Plant response rating (0 to 100 scale), Barnyardgrass ([5]; Postemergence, 1000 g ai/ha): 0
Plant response rating (0 to 100 scale), Barnyardgrass ([5]; Preemergence, 1000 g ai/ha): 0
Plant response rating (0 to 100 scale), Crabgrass, Large ([6]; Postemergence, 1000 g ai/ha): 0
Plant response rating (0 to 100 scale), Crabgrass, Large ([6]; Preemergence, 1000 g ai/ha): 0
Plant response rating (0 to 100 scale), Corn (corn (Zea mays); Postemergence, 1000 g ai/ha): 0
Plant response rating (0 to 100 scale), Corn (corn (Zea mays); Preemergence, 1000 g ai/ha): 0
Plant response rating, Sedge, Umbrella [7]: 0
Plant response rating, Rice (rice (Oryza sativa)): 0
Plant response rating, Ducksalad [8]: 0
Plant response rating, Barnyardgrass [9]: 0

N=C(c1ccccc1)c1c[nH]nc1-c1cc(Cl)cc(Cl)c1 [Compound 68]
Plant response rating (0 to 100 scale), Velvetleaf ([1]; Postemergence, 1000 g ai/ha): 90
Plant response rating (0 to 100 scale), Velvetleaf ([1]; Preemergence, 1000 g ai/ha): 100
Plant response rating (0 to 100 scale), Foxtail, Giant ([2]; Postemergence, 1000 g ai/ha): 0
Plant response rating (0 to 100 scale), Foxtail, Giant ([2]; Preemergence, 1000 g ai/ha): 0
Plant response rating (0 to 100 scale), Morningglory ([10]; Postemergence, 1000 g ai/ha): 0
Plant response rating (0 to 100 scale), Morningglory ([10]; Preemergence, 1000 g ai/ha): 0
Plant response rating (0 to 100 scale), Wheat ([3]; Postemergence, 1000 g ai/ha): 0
Plant response rating (0 to 100 scale), Wheat ([3]; Preemergence, 1000 g ai/ha): 0
Plant response rating (0 to 100 scale), Pigweed ([4]; Postemergence, 1000 g ai/ha): 100
Plant response rating (0 to 100 scale), Pigweed ([4]; Preemergence, 1000 g ai/ha): 100
Plant response rating (0 to 100 scale), Barnyardgrass ([5]; Postemergence, 1000 g ai/ha): 0
Plant response rating (0 to 100 scale), Barnyardgrass ([5]; Preemergence, 1000 g ai/ha): 0
Plant response rating (0 to 100 scale), Crabgrass, Large ([6]; Postemergence, 1000 g ai/ha): 0
Plant response rating (0 to 100 scale), Crabgrass, Large ([6]; Preemergence, 1000 g ai/ha): 0
Plant response rating (0 to 100 scale), Corn (corn (Zea mays); Postemergence, 1000 g ai/ha): 0
Plant response rating (0 to 100 scale), Corn (corn (Zea mays); Preemergence, 1000 g ai/ha): 0

Clc1cc(Cl)cc(-c2n[nH]cc2C2(c3ccccc3)SCCS2)c1 [Compound 69]
Plant response rating (0 to 100 scale), Velvetleaf ([1]; Postemergence, 125 g ai/ha): 20
Plant response rating (0 to 100 scale), Velvetleaf ([1]; Postemergence, 500 g ai/ha): 80
Velvetleaf plant response rating (0 = no effect, 100 = complete control) ([1]; Preemergence, 125 g ai/ha): 0
Plant response rating (0 to 100 scale), Velvetleaf ([1]; Preemergence, 500 g ai/ha): 20
Plant response rating (0 to 100 scale), Foxtail, Giant ([2]; Postemergence, 125 g ai/ha): 0
Plant response rating (0 to 100 scale), Foxtail, Giant ([2]; Postemergence, 500 g ai/ha): 0
Foxtail, Giant plant response rating (0 = no effect, 100 = complete control) ([2]; Preemergence, 125 g ai/ha): 0
Plant response rating (0 to 100 scale), Foxtail, Giant ([2]; Preemergence, 500 g ai/ha): 0
Plant response rating (0 to 100 scale), Morningglory ([10]; Postemergence, 125 g ai/ha): 0
Plant response rating (0 to 100 scale), Morningglory ([10]; Postemergence, 500 g ai/ha): 0
Morningglory plant response rating (0 = no effect, 100 = complete control) ([10]; Preemergence, 125 g ai/ha): 0
Plant response rating (0 to 100 scale), Morningglory ([10]; Preemergence, 500 g ai/ha): 0
Plant response rating (0 to 100 scale), Wheat ([3]; Postemergence, 125 g ai/ha): 0
Plant response rating (0 to 100 scale), Wheat ([3]; Postemergence, 500 g ai/ha): 0
Wheat plant response rating (0 = no effect, 100 = complete control) ([3]; Preemergence, 125 g ai/ha): 0
Plant response rating (0 to 100 scale), Pigweed ([4]; Postemergence, 125 g ai/ha): 30
Plant response rating (0 to 100 scale), Pigweed ([4]; Postemergence, 500 g ai/ha): 80
Pigweed plant response rating (0 = no effect, 100 = complete control) ([4]; Preemergence, 125 g ai/ha): 0
Plant response rating (0 to 100 scale), Pigweed ([4]; Preemergence, 500 g ai/ha): 40
Plant response rating (0 to 100 scale), Barnyardgrass ([5]; Postemergence, 125 g ai/ha): 0
Plant response rating (0 to 100 scale), Barnyardgrass ([5]; Postemergence, 500 g ai/ha): 0
Barnyardgrass plant response rating (0 = no effect, 100 = complete control) ([5]; Preemergence, 125 g ai/ha): 0
Plant response rating (0 to 100 scale), Barnyardgrass ([5]; Preemergence, 500 g ai/ha): 0
Plant response rating (0 to 100 scale), Crabgrass, Large ([6]; Postemergence, 125 g ai/ha): 0
Plant response rating (0 to 100 scale), Crabgrass, Large ([6]; Postemergence, 500 g ai/ha): 0
Crabgrass, Large plant response rating (0 = no effect, 100 = complete control) ([6]; Preemergence, 125 g ai/ha): 0
Plant response rating (0 to 100 scale), Crabgrass, Large ([6]; Preemergence, 500 g ai/ha): 0
Plant response rating (0 to 100 scale), Corn (corn (Zea mays); Postemergence, 125 g ai/ha): 0
Plant response rating (0 to 100 scale), Corn (corn (Zea mays); Postemergence, 500 g ai/ha): 0
Corn plant response rating (0 = no effect, 100 = complete control) (corn (Zea mays); Preemergence, 125 g ai/ha): 0
Plant response rating (0 to 100 scale), Corn (corn (Zea mays); Preemergence, 500 g ai/ha): 0
